Measured values published in the NIST ThermoML archive (doi:10.1016/j.jct.2018.02.016).
Numbers after ± are expanded uncertainties.

Settings: Gas chromatography

C=C1CC[C@@]23C[C@@H]1C(C)(C)[C@@H]2CC[C@H]3C [beta-cedrene]
Metastable liquid
Settings	vapor or sublimation pressure [kPa]
298.15 K	0.0031
310 K	0.0081
320 K	0.017
330 K	0.035 ± 0.017
340 K	0.067 ± 0.03
350 K	0.12 ± 0.051
360 K	0.21 ± 0.081
370 K	0.37 ± 0.12
380 K	0.61 ± 0.17
390 K	0.99 ± 0.23
400 K	1.5 ± 0.3
410 K	2.3 ± 0.38
420 K	3.5 ± 0.49
430 K	5.1 ± 0.65
440 K	7.3 ± 0.89
533.3 K	101.3 ± 10

C1C2CC3CC1CC(C2)C3 [adamantane]
Liquid
Settings	vapor or sublimation pressure [kPa]
298.15 K	0.13
310 K	0.26
320 K	0.46
330 K	0.77
340 K	1.3
350 K	2
360 K	3.1 ± 1.4
370 K	4.6 ± 1.8
380 K	6.8 ± 2.3
390 K	9.8 ± 2.9
400 K	14 ± 3
410 K	19 ± 4
420 K	26 ± 5
430 K	35 ± 5
440 K	46 ± 6
545 K	460 ± 46
555 K	550 ± 55
565 K	650 ± 65
575 K	760 ± 76

C1C2CC3C4CC5CC(C14)C(C2)C3C5 [pentacyclo[7.3.1.1(4,12).0(2,7).0(6,11)]tetradecane]
Metastable liquid
Settings	vapor or sublimation pressure [kPa]
298.15 K	0.0016
310 K	0.0043
320 K	0.0091
330 K	0.018
340 K	0.036
350 K	0.066
360 K	0.12
370 K	0.2
380 K	0.34
390 K	0.55
400 K	0.87 ± 0.42
410 K	1.3 ± 0.61
420 K	2 ± 0.83
430 K	3 ± 1.1
440 K	4.3 ± 1.5
516 K	44.3 ± 4.4
526 K	56 ± 5.6
536 K	71 ± 7.1
546 K	89 ± 8.9

CC1=CC[C@@]23C[C@@H]1C(C)(C)[C@@H]2CC[C@H]3C [alpha-cedrene]
Metastable liquid
Settings	vapor or sublimation pressure [kPa]
298.15 K	0.0031
310 K	0.0081
320 K	0.017
330 K	0.035 ± 0.017
340 K	0.067 ± 0.03
350 K	0.12 ± 0.051
360 K	0.22 ± 0.082
370 K	0.37 ± 0.12
380 K	0.61 ± 0.17
390 K	0.99 ± 0.23
400 K	1.5 ± 0.3
410 K	2.4 ± 0.38
420 K	3.5 ± 0.49
430 K	5.1 ± 0.65
440 K	7.3 ± 0.89
533.2 K	101.3 ± 10
